Test results reported in ChEMBL document CHEMBL4312007, “First synthesis of merged hybrids phosphorylated azirino[2,1-b]benzo[e][1,3]oxazine derivatives as anticancer agents” (Eur J Med Chem, 2020).
pIC50: −log10 of the molar value.

Assays:
A549 = assay: Antiproliferative activity against human A549 cells assessed as inhibition of cell growth incubated for 48 hrs by CCK8 assay; format: functional, cell-based; details: A549, 48 h
HEK293 = assay: Antiproliferative activity against HEK293 cells assessed as inhibition of cell growth incubated for 48 hrs by CCK8 assay; format: functional, cell-based; details: Homo sapiens, HEK293, 48 h
MRC5 = assay: Cytotoxicity against human MRC5 cells assessed as reduction in cell growth incubated for 48 hrs by CCK8 assay; format: cell-based; details: MRC5, 48 h

SMILES | pIC50 (A549) | pIC50 (HEK293) | pIC50 (MRC5)
CC[C@@]12Oc3ccccc3[C@](C)(O)N1[C@H]2P(=O)(c1ccccc1)c1ccccc1 (relative stereo) | 5.49 | < 4.30 | < 4.30
CC[C@@]12Oc3c(OC)cccc3[C@H](O)N1[C@H]2P(=O)(c1ccccc1)c1ccccc1 (relative stereo) | 4.68 | < 4.30 | < 4.30
CC[C@@]12Oc3ccccc3[C@H](O)N1[C@H]2P(=O)(c1ccccc1)c1ccccc1 (relative stereo) | 4.98 | < 4.30 | < 4.30
C[C@]1(O)c2ccccc2O[C@@]2(C)[C@H](P(=O)(c3ccccc3)c3ccccc3)N12 (relative stereo) | 4.68 | < 4.30 | < 4.30
CC(C)OP(=O)(OC(C)C)[C@@H]1N2[C@@H](O)c3ccccc3O[C@@]12C (relative stereo) | 5.52 | < 4.30 | < 4.30
C[C@@]12Oc3ccccc3[C@H](O)N1[C@H]2P(=O)(c1ccccc1)c1ccccc1 (relative stereo) | 5.57 | < 4.30 | < 4.30
CC[C@@]12Oc3ccc(C)cc3[C@H](O)N1[C@H]2P(=O)(c1ccccc1)c1ccccc1 (relative stereo) | 4.89 | < 4.30 | < 4.30
COc1cccc2c1O[C@@]1(C)[C@H](P(=O)(c3ccccc3)c3ccccc3)N1[C@H]2O (relative stereo) | 5.89 | < 4.30 | < 4.30
COc1cccc2c1C(=O)c1c(O)c3c(c(O)c1C2=O)C[C@@](O)(C(=O)CO)C[C@@H]3O[C@H]1C[C@H](N)[C@H](O)[C@H](C)O1 [DOXORUBICIN] | – | 5.25 | < 4.30
Cc1ccc2c(c1)[C@H](O)N1[C@@H](P(=O)(c3ccccc3)c3ccccc3)[C@]1(C)O2 (relative stereo) | 5.49 | < 4.30 | < 4.30
CCOP(=O)(OCC)[C@@H]1N2[C@@H](O)c3ccccc3O[C@@]12C (relative stereo) | 4.80 | – | < 4.30
CC(C)OP(=O)(OC(C)C)[C@@H]1N2[C@@](C)(O)c3ccccc3O[C@@]12C (relative stereo) | 4.99 | < 4.30 | < 4.30
C[C@@]12Oc3ccc(F)cc3[C@H](O)N1[C@H]2P(=O)(c1ccccc1)c1ccccc1 (relative stereo) | 4.71 | < 4.30 | < 4.30
